Data: patent US20100240764A1, “Use of S-Clenbuterol” (EUCRO EUROPEAN CONTRACT RESEARCH GMBH & CO. KG, priority 2005, published 2010)

What was measured:
[1] = literature, Eur J Pharmacol 446 (2002) 25-36; cited from earlier work
hippocampal neurons [2] = test: Staurosporine (STS)-induced apoptosis in cultured hippocampal neurons, Hoechst 33258 nuclear staining; format: cell-based, rat; details: 10 μM enantiomer added before STS 200 nM; apoptotic nuclei quantified 18 h after exposure; vs STS-treated controls (FIG. 1)
Protocol: (§1) Neuronal cultures. Mixed primary cultures of hippocampal neurons and glial cells were prepared from neonatal Fischer 344 rats as described in Brain Research 1717 (1996) 44-54. Experiments were carried out after 10 days in culture. The NMDA antagonist memantine (Merz, Germany) and clenbuterol were applied 1 h or 5 h before exposure of the cells to glutamate (500 μmol/L, 1 h), respectively. For induction of excitotoxic cell death, medium (conditioned medium) was collected and glutamate-containing medium was added, and then exchanged again after 1 h by the conditioned ? enantiomeres were present in the culture medium also during and after exposure to glutamate. For induction of apoptosis, neurons were exposed to staurosporine (STS, 200 nmol/L, Sigma) […]. Cell death was determined by the trypan blue exclusion method or after staining the nuclei with the DNA-binding fluorochrom Hoechst 33258 as in Brain Research 1717 (1996) 44-54 and in STROKE 2004, 35: 1197-1202.
The protective effects of the clenbuterol enantiomers in cultured neurons exposed to STS (200 nM) which induced apoptosis or glutamate (500 μM) which induced ecitotoxic cell death with morphological features of necrosis. The Clenbuterol enantiomeres were added to the culture medium at a concentration of 10 μM h before the onset of apoptotic or excitotoxic stress. […]

rat uterus = details: Clenbuterol isomers; literature; cited from earlier work
[3] = literature, Eur J Pharmacol 117 (1985) 127-129; cited from earlier work
hippocampal neurons [4] = test: Glutamate-induced excitotoxic cell death in cultured hippocampal neurons, trypan blue exclusion; format: cell-based, rat; details: 10 μM, glutamate 500 μM for 1 h; for protection of neurons against glutamate excitotoxic insult: trypan blue-stained cultures 18 h after exposure (FIG. 2)
Protocol: as §1
The protective effects of the clenbuterol enantiomers in cultured neurons exposed to STS (200 nM) which induced apoptosis or glutamate (500 μM) which induced ecitotoxic cell death with morphological features of necrosis. The Clenbuterol enantiomeres were added to the culture medium at a concentration of 10 μM h before the onset of apoptotic or excitotoxic stress. […] Further, it was investigated whether such differences in the protective effect of the clenbuterol enantiomers could also be observed in a paradigm of necrotic cell death induced by glutamate.

Row | SMILES | effects in preclinical models of neuroprotection [1] | STS-induced neuronal cell death (apoptotic nuclei) (hippocampal neurons [2]) | relaxant response in rat uterus (rat uterus) | activity in psychopharmacological tests (CNS-effect) [3] | protection of neurons against glutamate excitotoxic insult (hippocampal neurons [4]) | number of trypan blue positive neurons (hippocampal neurons [4]; 18 h after exposure)
1 | CC(C)(C)NCC(O)c1cc(Cl)c(N)c(Cl)c1 (racemic) [racemic Clenbuterol, Clenbuterol] | positive effects |  |  |  |  | 
2 | CC(C)(C)NC[C@H](O)c1cc(Cl)c(N)c(Cl)c1 [R-clenbuterol] |  | did not affect STS-induced apoptosis | shows the effect | based only on the (−)-enantiomer | did not show any protective effect | 
3 | CC(C)(C)NC[C@@H](O)c1cc(Cl)c(N)c(Cl)c1 [S-Clenbuterol] |  | significantly attenuated STS-induced neuronal cell death | not involved in the effects | did not show any CNS-effect | significantly protected the neurons against the excitotoxic insult | reduced the number of trypan blue positive neurons to control levels
